Data reported in PubChem BioAssay (NCI).
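How tested: cells in 96-well plates exposed to compound for 48 hours at five concentrations. Here, GI50 denotes the concentration required for 50% inhibition of growth. TGI: total growth inhibition.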

Columns and labels:
Experiment in all cases: NCI tumour cell line growth inhibition, 48 h
SR leukemia = test system: SR leukemia
A498 renal = test system: A498 renal
T-47D breast = test system: T-47D breast
SF-295 CNS = test system: SF-295 CNS
MOLT-4 leukemia = test system: MOLT-4 leukemia
MDA-MB-231 breast = test system: MDA-MB-231 breast
SF-539 CNS = test system: SF-539 CNS
NCI-H522 lung = test system: NCI-H522 lung
OVCAR-8 ovarian = test system: OVCAR-8 ovarian
ACHN renal = test system: ACHN renal
MALME-3M melanoma = test system: MALME-3M melanoma
A549 NSCLC = test system: A549 NSCLC
786-0 renal = test system: 786-0 renal
LOX IMVI melanoma = test system: LOX IMVI melanoma
CCRF-CEM leukemia = test system: CCRF-CEM leukemia
SNB-75 CNS = test system: SNB-75 CNS
RXF 393 renal = test system: RXF 393 renal
UO-31 renal = test system: UO-31 renal
SK-MEL-28 melanoma = test system: SK-MEL-28 melanoma
SN12C renal = test system: SN12C renal
SK-OV-3 ovarian = test system: SK-OV-3 ovarian
HS 578T breast = test system: HS 578T breast
TK-10 renal = test system: TK-10 renal
HCC-2998 colon = test system: HCC-2998 colon
HOP-62 NSCLC = test system: HOP-62 NSCLC
NCI-H226 lung = test system: NCI-H226 lung
NCI-H23 lung = test system: NCI-H23 lung
OVCAR-3 ovarian = test system: OVCAR-3 ovarian
HT29 colon = test system: HT29 colon
MCF7 breast = test system: MCF7 breast
NCI/ADR-RES ovarian = test system: NCI/ADR-RES ovarian
OVCAR-5 ovarian = test system: OVCAR-5 ovarian
NCI-H460 lung = test system: NCI-H460 lung
RPMI-8226 leukemia = test system: RPMI-8226 leukemia
MDA-MB-435 = test system: MDA-MB-435
SNB-19 CNS = test system: SNB-19 CNS
OVCAR-4 ovarian = test system: OVCAR-4 ovarian
BT-549 breast = test system: BT-549 breast
DU-145 prostate = test system: DU-145 prostate
SW-620 colon = test system: SW-620 colon
SK-MEL-5 melanoma = test system: SK-MEL-5 melanoma
COLO 205 colon = test system: COLO 205 colon
K-562 leukemia = test system: K-562 leukemia
PC-3 prostate = test system: PC-3 prostate
HCT-15 colon = test system: HCT-15 colon
UACC-257 melanoma = test system: UACC-257 melanoma
SK-MEL-2 melanoma = test system: SK-MEL-2 melanoma
EKVX NSCLC = test system: EKVX NSCLC
HCT-116 colon = test system: HCT-116 colon
HOP-92 NSCLC = test system: HOP-92 NSCLC
KM12 colon = test system: KM12 colon
SF-268 CNS = test system: SF-268 CNS
UACC-62 melanoma = test system: UACC-62 melanoma
IGROV1 ovarian = test system: IGROV1 ovarian
CAKI-1 renal = test system: CAKI-1 renal
HL-60(TB) leukemia = test system: HL-60(TB) leukemia
U251 CNS = test system: U251 CNS

`Cc1ccc(C(=O)Nc2ccc(CNCCN3CCOCC3)c(C(F)(F)F)c2)cc1C#Cc1cnc2cccnn12` showed a GI50 (SR leukemia) of 1.4 µM, a TGI (SR leukemia) of 6.64 µM and a GI50 (A498 renal) of 1.94 µM. For the same compound, the TGI (A498 renal) was 4.28 µM, the GI50 (T-47D breast) was 2.37 µM and the TGI (T-47D breast) was 6.73 µM. The GI50 (SF-295 CNS) was 1.62 µM, the TGI (SF-295 CNS) was 3.57 µM and the GI50 (MOLT-4 leukemia) was 1.31 µM. The TGI (MOLT-4 leukemia) was 5.37 µM, the GI50 (MDA-MB-231 breast) was 1.15 µM and the TGI (MDA-MB-231 breast) was 3.19 µM. The GI50 (SF-539 CNS) was 1.32 µM, the TGI (SF-539 CNS) was 2.67 µM and the GI50 (NCI-H522 lung) was 1.99 µM. For the same compound, the TGI (NCI-H522 lung) was 5.22 µM, the GI50 (OVCAR-8 ovarian) was 3.09 µM and the TGI (OVCAR-8 ovarian) was 10.8 µM. It also gave a GI50 (ACHN renal) of 2.82 µM, a TGI (ACHN renal) of 9.55 µM and a GI50 (MALME-3M melanoma) of 0.229 µM. It also gave a TGI (MALME-3M melanoma) of 1.87 µM, a GI50 (A549 NSCLC) of 2.54 µM and a TGI (A549 NSCLC) of 10.6 µM. For the same compound, the GI50 (786-0 renal) was 1.21 µM, the TGI (786-0 renal) was 3.29 µM and the GI50 (LOX IMVI melanoma) was 0.515 µM. For the same compound, the TGI (LOX IMVI melanoma) was 1.87 µM, the GI50 (CCRF-CEM leukemia) was 1.55 µM and the TGI (CCRF-CEM leukemia) was 8.23 µM. It also gave a GI50 (SNB-75 CNS) of 0.0644 µM, a TGI (SNB-75 CNS) of 0.778 µM and a GI50 (RXF 393 renal) of 1.63 µM. For the same compound, the TGI (RXF 393 renal) was 3.21 µM, the GI50 (UO-31 renal) was 1.45 µM and the TGI (UO-31 renal) was 3.47 µM. For the same compound, the GI50 (SK-MEL-28 melanoma) was 1.22 µM, the TGI (SK-MEL-28 melanoma) was 2.74 µM and the GI50 (SN12C renal) was 1.75 µM. The TGI (SN12C renal) was 5.68 µM, the GI50 (SK-OV-3 ovarian) was 3.91 µM and the TGI (SK-OV-3 ovarian) was 13.6 µM. The GI50 (HS 578T breast) was 1.81 µM, the TGI (HS 578T breast) was 5.24 µM and the GI50 (TK-10 renal) was 2.61 µM. For the same compound, the TGI (TK-10 renal) was 7.51 µM, the GI50 (HCC-2998 colon) was 1.55 µM and the TGI (HCC-2998 colon) was 3.24 µM. It also gave a GI50 (HOP-62 NSCLC) of 2.16 µM, a TGI (HOP-62 NSCLC) of 6.55 µM and a GI50 (NCI-H226 lung) of 1.66 µM. The TGI (NCI-H226 lung) was 7.59 µM, the GI50 (NCI-H23 lung) was 0.89 µM and the TGI (NCI-H23 lung) was 3.03 µM. The GI50 (OVCAR-3 ovarian) was 2.39 µM, the TGI (OVCAR-3 ovarian) was 6.24 µM and the GI50 (HT29 colon) was 0.794 µM. For the same compound, the TGI (HT29 colon) was 5.99 µM, the GI50 (MCF7 breast) was 1.42 µM and the TGI (MCF7 breast) was 3.2 µM. For the same compound, the GI50 (NCI/ADR-RES ovarian) was 2.17 µM, the TGI (NCI/ADR-RES ovarian) was 7.47 µM and the GI50 (OVCAR-5 ovarian) was 1.85 µM. The TGI (OVCAR-5 ovarian) was 8.17 µM, the GI50 (NCI-H460 lung) was 1.76 µM and the TGI (NCI-H460 lung) was 3.9 µM. The GI50 (RPMI-8226 leukemia) was 1.42 µM, the TGI (RPMI-8226 leukemia) was 3.83 µM and the GI50 (MDA-MB-435) was 0.746 µM. For the same compound, the TGI (MDA-MB-435) was 2.32 µM, the GI50 (SNB-19 CNS) was 3.11 µM and the TGI (SNB-19 CNS) was 9.73 µM. It also gave a GI50 (OVCAR-4 ovarian) of 2.52 µM, a TGI (OVCAR-4 ovarian) of 14.5 µM and a GI50 (BT-549 breast) of 2.27 µM. For the same compound, the TGI (BT-549 breast) was 4.56 µM, the GI50 (DU-145 prostate) was 2.92 µM and the TGI (DU-145 prostate) was 8.19 µM. The GI50 (SW-620 colon) was 1.66 µM, the TGI (SW-620 colon) was 10.5 µM and the GI50 (SK-MEL-5 melanoma) was 1.45 µM. The TGI (SK-MEL-5 melanoma) was 2.81 µM, the GI50 (COLO 205 colon) was 1.23 µM and the TGI (COLO 205 colon) was 3.82 µM. For the same compound, the TGI (K-562 leukemia) was 11.6 µM, the GI50 (PC-3 prostate) was 2.07 µM and the TGI (PC-3 prostate) was 6.17 µM. The GI50 (HCT-15 colon) was 0.925 µM, the TGI (HCT-15 colon) was 4.9 µM and the GI50 (UACC-257 melanoma) was 1.69 µM. It also gave a TGI (UACC-257 melanoma) of 3.57 µM, a GI50 (SK-MEL-2 melanoma) of 1.27 µM and a TGI (SK-MEL-2 melanoma) of 3.44 µM. It also gave a GI50 (EKVX NSCLC) of 3.12 µM, a TGI (EKVX NSCLC) of 10.7 µM and a GI50 (HCT-116 colon) of 0.5 µM. For the same compound, the TGI (HCT-116 colon) was 2.43 µM, the GI50 (HOP-92 NSCLC) was 0.761 µM and the TGI (HOP-92 NSCLC) was 3.12 µM. The GI50 (KM12 colon) was 0.393 µM, the TGI (KM12 colon) was 2.68 µM and the GI50 (SF-268 CNS) was 2.46 µM. For the same compound, the TGI (SF-268 CNS) was 7.04 µM, the GI50 (UACC-62 melanoma) was 1.45 µM and the TGI (UACC-62 melanoma) was 3.43 µM. For the same compound, the GI50 (IGROV1 ovarian) was 1.27 µM, the TGI (IGROV1 ovarian) was 3.43 µM and the GI50 (CAKI-1 renal) was 2.9 µM. It also gave a TGI (CAKI-1 renal) of 7.23 µM, a GI50 (HL-60(TB) leukemia) of 0.145 µM and a TGI (HL-60(TB) leukemia) of 2.6 µM. For the same compound, the GI50 (U251 CNS) was 1.84 µM and the TGI (U251 CNS) was 4.65 µM.
